Laboratory results: US9018173B2, “Materials and methods for suppressing inflammatory and neuropathic pain” (Indiana University Research and Technology Corp., priority 2010, dated 2015)
Residues, ends and D or L forms follow the SMILES beside them. No end group written: not given here.

What was measured:
[1] = test system: anxiety-associated behavior; assay: Light-Dark Box test (LDBT); format: in vivo, C57BL6 mice
Protocol: The light-dark box test and the elevated plus maze were used as measures of anxiety-associated behaviors. The tail suspension test was performed to evaluate despair- and depression-associated behavior. Anxiety-behavior testing Anxiety occurs when there is conflict between risk and reward. The Light-Dark Box test (LDBT) and the elevated plus maze (EPM) are accepted tests of anxiety-associated behavior that assess the conflict mice have against hiding in enclosed dark areas (i.e., dark box or closed arm) and their tendency to explore novel environments (i.e., white box or open arm). Lalonde, R. & Strazielle, C. […] J. Neurosci. Methods. 171, 48-52 (2008). These tests are also sensitive to anxiolytic drug treatments. Light-Dark Box test as a measure of anxiety-associated behavior. For the light-dark box test (LDBT), there were two adjoined light and dark compartments boxes with a 7 cm square opening to allow mice to move between them. The black box was covered (20 cm×40 cm×30 cm height) and the white box (20 cm×40 cm×30 cm height) was open and illuminated (40 W). Each mouse was placed into the white compartment and the white compartment was video recorded for later analyses using ANY-maze software (version 4.75, Stoelting, Wood Dale, Ill.) which is a video tracking system designed to automate testing in behavioral experiments. The main parameters were duration of time spent in the light box; the latency to enter the dark box; and the number of transitions between the light and dark box.

[2] = Biodistribution after i.p. injection (dot blot, FITC fluorescence); conditions: 25 mg/kg i.p.
[3] = test system: depression/despair-associated behavior; assay: Tail suspension test (TST); format: in vivo, C57BL6 mice
Protocol: The light-dark box test and the elevated plus maze were used as measures of anxiety-associated behaviors. The tail suspension test was performed to evaluate despair- and depression-associated behavior.
Depression/Despair-behavior testing. Since rodents such as mice and rats display immobile postures when placed in inescapable stressful situations, immobility behavior in the tail suspension test (TST) or forced swim test (FST) is used as a measure of “depression” or “despair”-associated behavior. Furthermore, administering antidepressant treatments prior to testing reduces immobility behavior. Therefore TST and FST are often used to screen novel drugs for depressant or anti-depressant properties.
Tail suspension test as a measure of depression-associated behavior. Immediately following the EPM test, the TST was conducted according to standard procedure between 8:00 AM and 2:00 PM. Cryan, J. F., Mombereau, C., & Vassout, A. The tail suspension test as a model for assessing antidepressant activity: review of pharmacological and genetic studies in mice. Neurosci. Biobehay. Rev. 29, 571-625 (2005). Briefly, each mouse was suspended by the tail at a height of 40 cm by taping the rail to a horizontal bar so that the tail is vertical to the bar. Behavior was video recorded for 5 min and later analyzed by an experimenter, whom was blind to the treatments. […] If a mouse climbed its tail the mouse was gently pulled back down and the trial continued. Mice that climbed their tails for more than 20% of the trial (i.e. >60 seconds) were eliminated from the final analysis. Duration and frequency of immobility was the main parameters measured. Mice injected with the scrambled control peptide were immobile approximately 26% of the TST duration which is equivalent to baseline immobility durations (approximately 27%) observed in C57B16 mice in another recent study.

[4] = test system: anxiety-associated behavior; assay: Elevated plus maze (EPM); format: in vivo, C57BL6 mice
[5] = test system: capsaicin-induced meningeal blood flow changes
[6] = C57BL6 mice, 10 mg/kg i.p., 1 h after injection, 5 min test

With CC[C@H](C)[C@H](NC(=O)[C@@H](NC(=O)[C@H](CC(C)C)NC(=O)[C@H](C)NC(=O)[C@H](CCC(=O)O)NC(=O)[C@H](Cc1ccccc1)NC(=O)[C@H](Cc1ccc(O)cc1)NC(=O)[C@H](CC(C)C)NC(=O)[C@H](CCSC)NC(=O)[C@H](CCC(=O)O)NC(=O)[C@H](CCCCN)NC(=O)[C@H](C)NC(=O)[C@H](CCC(=O)O)NC(=O)[C@H](Cc1c[nH]c2ccccc12)NC(=O)[C@H](CCCNC(=N)N)NC(=O)[C@H](CCCNC(=N)N)NC(=O)[C@H](CCCNC(=N)N)NC(=O)[C@H](CCC(N)=O)NC(=O)[C@H](CCCNC(=N)N)NC(=O)[C@H](CCCNC(=N)N)NC(=O)[C@H](CCCCN)NC(=O)[C@H](CCCCN)NC(=O)[C@H](CCCNC(=N)N)NC(=O)CNC(=O)[C@@H](N)Cc1ccc(O)cc1)C(C)C)C(=O)N[C@@H](CCC(=O)O)C(=O)O [TAT-Scramble, reference compound] (H-YGRKKRRQRRRWEAKEMLYFEALVIE-OH; N-terminus and C-terminus assumed) the “Light-Dark Box: Dark box latency to exit” value [1, 6] was 53.0 ± 11.5 s, the “Light-Dark Box: Light box entries” value [1, 6] was 8.2 ± 0.8 and the “LDBT time in the light box” value ([1]; mouse, in vivo) was “approximately 25%”. For the same molecule, the “tissue distribution (dot blot, anti-TAT antibody)” value ([2]; 15 min post-injection) was “detected in spleen and largely concentrated in lumbar dorsal root ganglion (DRG) and lumbar section of the spinal cord”, the “tissue distribution (dot blot, anti-TAT antibody)” value ([2]; 1 h post-injection) was “also detected in kidney, brain, spinal cord and was abundant in the DRG” and the “Tail Suspension Test: Active” value [3, 6] was 221.0 ± 11.3 s. The “TST immobility as share of test duration” value ([3]; mouse, in vivo) was “approximately 26%”, the “EPM time in the open arm compared to the closed arm” value ([4]; 10 mg/kg) was “approximately 30%” and the “Elevated Plus Maze: Closed arm entries” value [4, 6] was 16.3 ± 2.0. The “Elevated Plus Maze: Closed arm latency to enter” value [4, 6] was 6.3 ± 2.5 s, the “Elevated Plus Maze: Closed arm latency to exit” value [4, 6] was 14.7 ± 3.0 s and the “Elevated Plus Maze: Open arm entries” value [4, 6] was 11.5 ± 1.6. For the same molecule, the “Elevated Plus Maze: Open arm latency to enter” value [4, 6] was 5.9 ± 2.3 s and the “Elevated Plus Maze: Open arm latency to exit” value [4, 6] was 14.5 ± 3.1 s.
For “CGRP8-37: CGRP antagonist (VTHRLAGLLSRSGGVVKNNFVPTNVGSKAF; ends and bridges not checked; UniProt P06881 90-119, looked up, fragment)”, the “capsaicin-induced blood flow changes (effect in words)” value ([5]; dural application prior to nasal capsaicin 100 nM) was “blocked” and the “capsaicin-induced blood flow change after CGRP antagonist” value ([5]; prior topical administration, n=3) was 5±4%.
